Results as given in publication PMC8706783 (Pharmaceutics, 2021).
Values belong to the compound of their own block, whether it stands above or below them.

Columns and labels:
[1] = target: T1, UGT2B7 (Homo sapiens, UniProt P16662); assay: Reaction phenotyping, rUGT2B7; settings: recombinant UGT2B7, pH 7.4
T1 sequence (P16662 24-529): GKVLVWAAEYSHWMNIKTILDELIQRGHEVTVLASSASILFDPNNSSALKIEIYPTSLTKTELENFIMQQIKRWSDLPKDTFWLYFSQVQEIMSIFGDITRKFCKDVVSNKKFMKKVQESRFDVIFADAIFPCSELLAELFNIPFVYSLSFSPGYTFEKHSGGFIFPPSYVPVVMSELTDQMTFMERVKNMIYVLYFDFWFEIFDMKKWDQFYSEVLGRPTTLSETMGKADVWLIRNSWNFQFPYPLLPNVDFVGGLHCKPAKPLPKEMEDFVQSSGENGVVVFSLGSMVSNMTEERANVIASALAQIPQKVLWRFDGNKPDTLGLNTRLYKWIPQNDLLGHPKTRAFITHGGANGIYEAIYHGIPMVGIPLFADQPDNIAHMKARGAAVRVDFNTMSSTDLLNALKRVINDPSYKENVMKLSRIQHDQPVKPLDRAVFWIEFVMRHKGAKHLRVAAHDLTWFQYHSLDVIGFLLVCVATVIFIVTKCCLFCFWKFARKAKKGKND

[2] = target: T2, UGT1A4 (Homo sapiens, UniProt P22310); assay: Reaction phenotyping, rUGT1A4; settings: recombinant UGT1A4, pH 7.4
T2 sequence (P22310 29-534): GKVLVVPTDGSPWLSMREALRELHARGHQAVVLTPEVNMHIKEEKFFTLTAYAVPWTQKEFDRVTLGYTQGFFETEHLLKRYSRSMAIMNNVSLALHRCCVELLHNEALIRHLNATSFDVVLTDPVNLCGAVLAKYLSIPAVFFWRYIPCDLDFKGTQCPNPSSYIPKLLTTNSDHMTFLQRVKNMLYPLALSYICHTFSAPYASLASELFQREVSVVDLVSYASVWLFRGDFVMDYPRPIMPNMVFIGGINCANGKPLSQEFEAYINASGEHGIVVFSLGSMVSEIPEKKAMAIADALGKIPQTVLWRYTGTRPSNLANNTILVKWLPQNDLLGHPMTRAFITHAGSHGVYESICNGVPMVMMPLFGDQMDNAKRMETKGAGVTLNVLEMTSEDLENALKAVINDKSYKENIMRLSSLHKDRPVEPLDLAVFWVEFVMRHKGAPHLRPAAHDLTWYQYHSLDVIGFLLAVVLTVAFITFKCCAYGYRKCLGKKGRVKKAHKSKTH

[3] = target: T3, CYP1A1 (Homo sapiens, UniProt P04798); assay: Reaction phenotyping, rCYP1A1; settings: recombinant CYP1A1, pH 7.4
T3 sequence (P04798 1-512): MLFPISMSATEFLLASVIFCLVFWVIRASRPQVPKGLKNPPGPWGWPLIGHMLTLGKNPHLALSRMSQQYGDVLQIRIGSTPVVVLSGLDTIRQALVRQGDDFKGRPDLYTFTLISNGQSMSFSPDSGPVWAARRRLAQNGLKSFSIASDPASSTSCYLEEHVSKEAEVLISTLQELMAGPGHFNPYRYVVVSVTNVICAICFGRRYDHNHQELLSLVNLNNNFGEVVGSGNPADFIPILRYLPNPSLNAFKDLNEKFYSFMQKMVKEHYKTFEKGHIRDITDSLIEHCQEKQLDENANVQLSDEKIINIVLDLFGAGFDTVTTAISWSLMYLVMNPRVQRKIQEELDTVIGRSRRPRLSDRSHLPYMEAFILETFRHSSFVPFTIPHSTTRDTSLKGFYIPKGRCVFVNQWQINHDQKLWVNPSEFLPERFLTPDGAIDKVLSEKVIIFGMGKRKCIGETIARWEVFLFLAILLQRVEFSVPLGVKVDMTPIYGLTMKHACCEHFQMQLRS

[4] = target: T4, CYP1A2 (Homo sapiens, UniProt P05177); assay: Reaction phenotyping, rCYP1A2; settings: recombinant CYP1A2, pH 7.4
T4 sequence (P05177 1-516): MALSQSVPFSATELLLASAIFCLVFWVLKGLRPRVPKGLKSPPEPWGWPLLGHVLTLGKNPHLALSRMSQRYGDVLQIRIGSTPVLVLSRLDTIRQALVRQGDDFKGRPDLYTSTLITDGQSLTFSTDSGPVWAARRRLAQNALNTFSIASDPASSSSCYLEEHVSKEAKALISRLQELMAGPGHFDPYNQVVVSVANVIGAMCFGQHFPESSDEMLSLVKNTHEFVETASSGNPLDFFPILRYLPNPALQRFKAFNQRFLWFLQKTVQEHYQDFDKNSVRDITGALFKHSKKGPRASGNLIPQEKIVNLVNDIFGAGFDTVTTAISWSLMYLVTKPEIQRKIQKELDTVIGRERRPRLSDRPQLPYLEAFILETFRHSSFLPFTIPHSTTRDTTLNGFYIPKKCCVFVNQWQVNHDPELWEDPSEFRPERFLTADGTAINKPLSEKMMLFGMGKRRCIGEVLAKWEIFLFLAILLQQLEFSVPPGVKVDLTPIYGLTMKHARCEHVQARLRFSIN

[5] = target: T5, UGT1A9 (Homo sapiens, UniProt O60656); assay: Reaction phenotyping, rUGT1A9; settings: recombinant UGT1A9, pH 7.4
T5 sequence (O60656 26-530): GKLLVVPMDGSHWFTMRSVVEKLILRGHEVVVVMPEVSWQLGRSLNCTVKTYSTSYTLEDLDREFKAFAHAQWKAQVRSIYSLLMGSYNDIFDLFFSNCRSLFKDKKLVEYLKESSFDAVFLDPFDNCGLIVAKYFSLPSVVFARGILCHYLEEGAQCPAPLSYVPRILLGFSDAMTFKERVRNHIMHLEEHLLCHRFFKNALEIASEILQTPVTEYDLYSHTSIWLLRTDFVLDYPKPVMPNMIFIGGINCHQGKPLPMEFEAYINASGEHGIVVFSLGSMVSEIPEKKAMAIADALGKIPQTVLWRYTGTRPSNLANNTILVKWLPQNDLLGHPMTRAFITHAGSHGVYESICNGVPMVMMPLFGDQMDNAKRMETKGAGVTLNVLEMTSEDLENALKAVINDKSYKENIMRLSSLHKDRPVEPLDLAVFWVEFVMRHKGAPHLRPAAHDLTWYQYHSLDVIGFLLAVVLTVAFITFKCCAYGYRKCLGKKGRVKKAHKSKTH

[6] = Reaction phenotyping, HLM with UDPGA; settings: human, human liver microsomes, pH 7.4
[7] = target: T6, UGT1A6 (Homo sapiens, UniProt P19224); assay: Reaction phenotyping, rUGT1A6; settings: recombinant UGT1A6, pH 7.4
T6 sequence (P19224 27-532): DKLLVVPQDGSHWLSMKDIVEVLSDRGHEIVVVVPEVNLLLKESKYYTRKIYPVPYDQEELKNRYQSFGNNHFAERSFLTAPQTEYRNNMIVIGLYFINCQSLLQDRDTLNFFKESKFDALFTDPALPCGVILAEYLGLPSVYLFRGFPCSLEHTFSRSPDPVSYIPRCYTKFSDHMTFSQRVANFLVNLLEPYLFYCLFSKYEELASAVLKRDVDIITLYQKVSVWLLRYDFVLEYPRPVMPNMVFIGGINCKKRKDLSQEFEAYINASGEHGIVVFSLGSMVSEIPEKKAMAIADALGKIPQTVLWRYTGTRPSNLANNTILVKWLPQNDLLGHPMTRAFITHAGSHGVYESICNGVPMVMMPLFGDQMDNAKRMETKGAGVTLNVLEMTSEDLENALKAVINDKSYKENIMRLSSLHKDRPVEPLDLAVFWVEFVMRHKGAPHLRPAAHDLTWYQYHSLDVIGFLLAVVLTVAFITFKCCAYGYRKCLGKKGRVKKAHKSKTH

[8] = target: T7, UGT1A7 (Homo sapiens, UniProt Q9HAW7); assay: Reaction phenotyping, rUGT1A7; settings: recombinant UGT1A7, pH 7.4
T7 sequence (Q9HAW7 26-530): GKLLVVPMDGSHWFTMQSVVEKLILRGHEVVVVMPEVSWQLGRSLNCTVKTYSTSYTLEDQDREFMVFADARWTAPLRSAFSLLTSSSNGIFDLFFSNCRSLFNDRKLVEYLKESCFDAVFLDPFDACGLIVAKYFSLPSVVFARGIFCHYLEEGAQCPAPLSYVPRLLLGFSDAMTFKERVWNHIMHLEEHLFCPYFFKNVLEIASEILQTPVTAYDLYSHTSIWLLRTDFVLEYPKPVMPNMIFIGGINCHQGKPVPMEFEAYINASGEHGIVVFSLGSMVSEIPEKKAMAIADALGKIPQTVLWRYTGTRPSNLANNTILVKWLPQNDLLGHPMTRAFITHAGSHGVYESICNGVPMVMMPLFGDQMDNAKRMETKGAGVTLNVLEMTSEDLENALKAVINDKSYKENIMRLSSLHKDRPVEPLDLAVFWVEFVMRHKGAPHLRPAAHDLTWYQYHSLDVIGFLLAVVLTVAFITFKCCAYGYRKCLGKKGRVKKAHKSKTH

[9] = target: T8, UGT1A8 (Homo sapiens, UniProt Q9HAW9); assay: Reaction phenotyping, rUGT1A8; settings: recombinant UGT1A8, pH 7.4
T8 sequence (Q9HAW9 26-530): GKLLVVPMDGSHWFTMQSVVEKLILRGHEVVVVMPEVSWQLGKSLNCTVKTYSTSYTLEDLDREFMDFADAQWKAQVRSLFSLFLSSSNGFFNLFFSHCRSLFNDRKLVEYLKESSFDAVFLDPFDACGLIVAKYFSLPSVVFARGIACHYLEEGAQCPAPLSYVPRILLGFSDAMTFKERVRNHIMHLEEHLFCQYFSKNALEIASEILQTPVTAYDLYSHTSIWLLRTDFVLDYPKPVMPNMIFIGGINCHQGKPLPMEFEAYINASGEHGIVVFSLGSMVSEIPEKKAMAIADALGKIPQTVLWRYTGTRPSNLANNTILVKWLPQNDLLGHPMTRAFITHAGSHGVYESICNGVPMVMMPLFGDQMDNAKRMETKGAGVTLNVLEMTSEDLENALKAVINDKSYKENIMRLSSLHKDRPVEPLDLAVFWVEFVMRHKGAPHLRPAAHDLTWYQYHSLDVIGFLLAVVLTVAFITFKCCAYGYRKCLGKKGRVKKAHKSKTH

[10] = target: rCYP1B1 (Homo sapiens, UniProt Q16678); settings: recombinant enzyme, 1 h
rCYP1B1, sequence (Q16678 whole entry): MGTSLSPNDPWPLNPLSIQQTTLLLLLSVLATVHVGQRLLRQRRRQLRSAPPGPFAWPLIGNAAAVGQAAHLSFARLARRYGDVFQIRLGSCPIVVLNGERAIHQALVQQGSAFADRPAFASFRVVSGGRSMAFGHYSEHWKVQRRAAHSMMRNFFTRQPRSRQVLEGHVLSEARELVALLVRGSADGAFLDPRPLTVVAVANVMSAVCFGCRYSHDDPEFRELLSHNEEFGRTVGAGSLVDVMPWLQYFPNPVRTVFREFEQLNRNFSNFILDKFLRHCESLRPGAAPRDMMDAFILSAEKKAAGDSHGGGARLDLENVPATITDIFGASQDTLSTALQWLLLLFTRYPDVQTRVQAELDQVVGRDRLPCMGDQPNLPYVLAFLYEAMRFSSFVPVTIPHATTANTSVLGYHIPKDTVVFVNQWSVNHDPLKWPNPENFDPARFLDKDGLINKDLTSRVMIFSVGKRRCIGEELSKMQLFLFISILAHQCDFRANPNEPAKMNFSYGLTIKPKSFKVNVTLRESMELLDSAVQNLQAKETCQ

remaining at 1 h, 10 µM [1]: 74.4%
SMILES: Cc1cn([C@H]2C[C@H](N=[N+]=[N-])[C@@H](CO)O2)c(=O)[nH]c1=O [Zidovudine]

remaining at 1 h, 0.5 µM [2]: 73.1%
SMILES: CN1CCN(CCCN2c3ccccc3Sc3ccc(C(F)(F)F)cc32)CC1 [Trifluoperazine]

remaining at 1 h, 10 µM [3]: 41%
remaining at 1 h, 10 µM [4]: 65.8%
SMILES: CCOc1ccc(NC(C)=O)cc1 [Phenacetin]

remaining at 1 h, 0.2 µM [5]: 0%
SMILES: COc1c(C)c2c(c(O)c1C/C=C(\C)CCC(=O)O)C(=O)OC2 [Mycophenolic acid]

remaining at 1 h, 2 µM [6]: 0.82%
remaining at 1 h, 2 µM [7]: 5.26%
remaining at 1 h, 10 µM [8]: 70.9%
remaining at 1 h, 2 µM [9]: 49.9%
SMILES: Cc1cc(=O)oc2cc(O)ccc12 [4-methylumbelliferone]

Known Substrate (% Remaining at 60 min) [10]: 7-ethoxyresorufin (35.11) %
SMILES: CCOc1ccc2nc3ccc(=O)cc-3oc2c1 [7-ethoxyresorufin]
